Assay results taken from patent US11447472B2, “Polymorophs of 5-aza-4′-thio-2′-deoxycytidine” (Southern Research Institute, priority 2020, dated 2022).

Experiment: Physical stability of solid forms under accelerated aging conditions (AAC, 25° C./60% RH, two days), HT-XRPD
Conditions: for AAC (form found after storage): Table 4, storage at 25° C., 60% relative humidity; for conversion after storage at 25° C., 60% relative humidity: two days
Experimental: All solids were exposed to accelerated aging conditions (2 days at 25° C./60% RH) and re-analyzed by HT-XRPD.
Subsequently, the solids were placed at 25° C./60% RH for two days (AAC) and re-analyzed by XRPD.
Subsequently, all solids were exposed to accelerated aging conditions for two days (AAC, 25° C./60% RH) and re-analyzed by HT-XRPD.
Subsequently, all the solids were exposed to accelerated aging conditions (25° C./60% RH) for two days and re-analyzed by HT-XRPD.
All solids were then exposed to accelerated aging conditions (2 days at 25° C./60% RH) followed by HT-XRPD re-analysis.
Subsequently, all solids were exposed to accelerated aging conditions (2 days at 25° C./60% RH) and re-analyzed by HT-XRPD.
Subsequently, all solids were exposed to accelerated aging conditions (25° C./60% RH) for two days and then re-analyzed by HT-XRPD.

Nc1ncn([C@H]2C[C@H](O)[C@@H](CO)S2)c(=O)n1 [A + D2, 5-Aza-4′-thio-2′-deoxycytidine]
AAC (form found after storage) (sample obtained by ECP from MeOH): A + L

Nc1ncn([C@H]2C[C@H](O)[C@@H](CO)S2)c(=O)n1 [Form B, 5-Aza-4′-thio-2′-deoxycytidine]
physical stability (in words): physically unstable | conversion after storage at 25° C., 60% relative humidity (text): converted to Form A | conversion after storage at 25° C., 60% relative humidity (text, listed as B): convert to Form A

Nc1ncn([C@H]2C[C@H](O)[C@@H](CO)S2)c(=O)n1 [Form C2, 5-Aza-4′-thio-2′-deoxycytidine]
conversion after storage at 25° C., 60% relative humidity (text, listed as C2): convert to Form A

Nc1ncn([C@H]2C[C@H](O)[C@@H](CO)S2)c(=O)n1 [Form D2, 5-Aza-4′-thio-2′-deoxycytidine]
conversion after storage at 25° C., 60% relative humidity (text, listed as D2): convert to Form A

Nc1ncn([C@H]2C[C@H](O)[C@@H](CO)S2)c(=O)n1 [Form E, 5-Aza-4′-thio-2′-deoxycytidine]
AAC (form found after storage) (sample obtained by ECP from DMA/TBME (80/20, v/v)): A + F | conversion after storage at 25° C., 60% relative humidity (text): converts to Form A | conversion after storage at 25° C., 60% relative humidity (text, listed as E): convert to Form A

Nc1ncn([C@H]2C[C@H](O)[C@@H](CO)S2)c(=O)n1 [Form G1, 5-Aza-4′-thio-2′-deoxycytidine]
conversion after storage at 25° C., 60% relative humidity (text): convert to Form A | conversion after storage at 25° C., 60% relative humidity (text, listed as G1): convert to Form A

Nc1ncn([C@H]2C[C@H](O)[C@@H](CO)S2)c(=O)n1 [Form G2, 5-Aza-4′-thio-2′-deoxycytidine]
conversion after storage at 25° C., 60% relative humidity (text): convert to Form A | conversion after storage at 25° C., 60% relative humidity (text, listed as G2): convert to Form A

Nc1ncn([C@H]2C[C@H](O)[C@@H](CO)S2)c(=O)n1 [Form H, 5-Aza-4′-thio-2′-deoxycytidine]
AAC (form found after storage) (sample from the method/solvent of that table row): F + H | conversion after storage at 25° C., 60% relative humidity: convert to Form A | conversion of the form (when obtained from NMP): converted to Form F | conversion of the form (when obtained from other solvents): converted to Form A

Nc1ncn([C@H]2C[C@H](O)[C@@H](CO)S2)c(=O)n1 [Form I, 5-Aza-4′-thio-2′-deoxycytidine]
conversion after storage at 25° C., 60% relative humidity (text): converts to Form A | conversion after storage at 25° C., 60% relative humidity (text, listed as I): convert to Form A

Nc1ncn([C@H]2C[C@H](O)[C@@H](CO)S2)c(=O)n1 [Form J, 5-Aza-4′-thio-2′-deoxycytidine]
conversion after storage at 25° C., 60% relative humidity (text): converts to Form A | conversion after storage at 25° C., 60% relative humidity (text, listed as J): convert to Form A

Nc1ncn([C@H]2C[C@H](O)[C@@H](CO)S2)c(=O)n1 [Form K, 5-Aza-4′-thio-2′-deoxycytidine]
conversion after storage at 25° C., 60% relative humidity (text): converted to Form F | conversion after storage at 25° C., 60% relative humidity (text, listed as K): convert to Form A
